The text below walks through data of publication PMC10859961, “Ir(III) Half-Sandwich Photosensitizers with a π-Expansive Ligand for Efficient Anticancer Photodynamic Therapy” (Journal of Medicinal Chemistry, 2024).

Data set [1] relates to A549 cells. The data set is described as follows: Cell internalization (iridium content by ICP-MS). The data set is classed as cell-based, human. Conditions: for iridium content in cells: 10 μM, 1 h. How it is done:
To assess the cell internalization mechanism, 8 × 10^6 A549 cells were incubated with complex 6 at 10 μM for 1 h in the dark under different conditions: (i) at 37 °C (positive control cells), (ii) at 37 °C in the presence of CCCP (50 μM) (to inhibit mitochondrial ATP production) or (iii) at 4 °C (to inhibit cellular metabolism). The cells incubated with medium alone were included as negative control. Then, the cells were washed twice with PBS, detached with trypsin, and centrifuged to obtain the whole cell pellet. […] The iridium amount in the samples was then determined by inductively coupled plasma mass spectrometry (ICP-MS) analysis. To this end, the cell pellets were dissolved in 400 μL of 69% v/v nitric acid (PanReac Applichem) and heated in a water bath at 100 °C for 18 h. Samples were then allowed to cool and diluted with Milli-Q water to a final volume of 10 mL. […] Iridium content was measured on an ICP-MS Agilent 7500c instrument at the Serveis Tècnics de Recerca, Universitat de Girona. The solvent used for all ICP-MS experiments was Milli-Q water with 2% superpure grade HNO3. The iridium standard (high purity standards, 1000 μg/mL ± 2 μg/mL in 5% hydrochloric acid in low TOC water (<50 ppb)) was diluted with 2% HNO3 to 400 ppb. Iridium standards were freshly prepared in Milli-Q water with 2% HNO3 before each experiment. The concentrations used for the calibration curve were 0, 1, 2, 5, 10, and 20 ppb. The isotope detected was 193Ir and readings were done in triplicate. Rhodium was added as an internal standard at a concentration of 10 ppb to all samples. All of the experiments were performed by duplicate.

For data set [2], the system named is A549 cells. In words: Subcellular distribution (cell fractionation, ICP-MS). Format: cell-based, human. Conditions: 10 μM, 4 h, 37 °C. As to the method:
The intracellular distribution of complex 6 was explored by measuring the iridium content in different cellular compartments: nucleus, membrane/particulate (which includes cellular organelles and organelle’s membrane proteins), cytosol, and cytoskeleton. To this end, 8 × 10^6 A549 cells were incubated with 6 at 10 μM for 4 h in the dark at 37 °C. Then, the cells were washed twice with PBS, detached with trypsin, and centrifuged to obtain the whole cell pellet. The viability of the cells was assessed through Trypan blue staining, which confirmed that over 95% of the cells were viable. The different cell fractions were then isolated using the FractionPREP Cell Fractionation kit (BioVision) and the total iridium content in each fraction was measured by ICP-MS in two independent experiments, as described above.

Data set [3] concerns A549 cells. In words: Cell death mechanism (Annexin V-FITC / propidium iodide). Conditions: photoactivated. Format: cell-based, human. How it is done: The cell death mechanism was analyzed with the Vybrant Apoptosis Assay Kit (Molecular Probes). A549 cells seeded in 12-well plates at a density of 1 × 10^5 cells per well were treated with complex 6 at the corresponding IC50,light × 5 under photoactivation conditions. Cisplatin at 50 μM was used as positive control. 4 and 20 h after the irradiation, cells were collected by trypsinization and immediately stained with Annexin V-FITC and propidium iodide according to the manufacturer’s instructions. The median fluorescence of 10,000 cells of each sample was analyzed by flow cytometry. Annexin-FITC staining was detected at a wavelength of 520 nm (FL1) and propidium iodide was detected at 617 nm (FL2).

Data set [4] in a line: Reactivity of 1w with n-Bu4NCl (1H NMR). The data set is classed as physicochemical. The following applies: 100 equivalents of n‐Bu4NCl. As to the method: A solution of 1w (3.0 mM) with 100 equiv of n-Bu4NCl (300 mM) in a DMSO-d6/D2O (9:1, v/v) mixture was monitored by NMR spectroscopy at room temperature and at 60 °C.

With `Cc1c(C)c(C)[c-](C)c1C.F[B-](F)(F)F.c1ccc2cc3nc4c5ccc[n+]6c5c5[c](cccc5c4nc3cc2c1)[Ir]6[n+]1ccn(CCN2CCCCC2)c1` [complex 6, [(η^5-C5Me5) Ir(Imepip)(pbpn)]BF4], the “iridium content in cells” value with A549 cells [1] (4 °C) amounted to 18.0 ± 3 ng/10^6 cells. For the same compound, the “iridium content in cells” value in the data set on A549 cells [1] (37 °C, no inhibition) amounted to 87.6 ± 4 ng/10^6 cells. In addition, the “iridium content in cells” value in the data set on A549 cells [1] (CCCP pretreatment) came out at 17.6 ± 2 ng/10^6 cells. Besides, in the data set with A549 cells [1] (at 4 °C or with CCCP pretreatment), the “reduction of iridium content vs 37 °C” value was “approximately 80%”. Also, in the data set on A549 cells [2], the “iridium in cytoskeletal fraction” value was 11.0 ± 4 ng Ir/10^6 cells, the “iridium in cytosolic fraction” value is 4.6 ± 2 ng Ir/10^6 cells, the “iridium in membrane/organelles fraction” value amounted to 140.8 ± 20 ng Ir/10^6 cells and the “iridium in nuclear fraction” value was 7.1 ± 4 ng Ir/10^6 cells. Further, in the data set with A549 cells [3] (IC50,light × 5, 4 h), the “cells in early apoptosis (AN+; IP−), lower right quadrant” value amounted to 1.7%; the “cells in late apoptosis (AN+; IP+), upper right quadrant” value is 15.8%; the “cells in necrosis (AN–; IP+), upper left quadrant” value came out at 6.4%. Besides, in the data set with A549 cells [3] (IC50,light × 5, 20 h), the “cells in late apoptosis (AN+; IP+), upper right quadrant” value is listed as 43.2% and the “cells in necrosis (AN–; IP+), upper left quadrant” value worked out at 10.4%.
`Cc1c(C)c(C)[c-](C)c1C.[Cl][Ir]1[c]2cccc3c4nc5ccccc5nc4c4ccc[n+]1c4c23` [complex 1, [(η^5-C5Me5)IrCl(pbpz)]]: the “chloride complex 1 formed back from 1w” value in data set [4] (60 °C, 15 minutes) is “approximately 15%”; in data set [4] (room temperature, 4 days) it was 2%.
